Results taken from patent US5591741A, “Fungicidal spiroheterocyclic derivatives” (American Cyanamid Company, priority 1993, dated 1997).

What was measured:
[1] = test system: Erysiphe graminis f.sp. hordei; test: Direct protectant activity against barley powdery mildew (EGP); assay type: in vivo; conditions: direct protectant foliar spray, 8 days
In short: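 Rating reflects percentage of leaf area with sporulation compared with untreated or diluent-sprayed controls. Protectant spray was applied to single-leaf barley (cv Golden Promise) 24 h before conidia inoculation. Plants were kept at 18 °C and 40% RH throughout, with 8 days of disease development.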

Rhizoctonia solani = test: Activity against Rhizoctonia in-vitro (RSI); assay type: cell-based; conditions: 10 ppm, 10 days, 20° C., mycelial growth
In short: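 Compound at a final 10 ppm (acetone vehicle) in half-strength PDB, inoculated with 5×10^4 fragments/ml of shaken-culture R. solani mycelium. After incubation at 20° C for 10 days, growth scored as a rating versus untreated or diluent-treated controls.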

Leptosphaeria nodorum = test: Activity against wheat leafspot (LN); assay type: in vivo; conditions: direct therapeutic foliar spray, 600 ppm, 6-8 days
In short: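 Therapeutic foliar spray: compound at 600 ppm applied to single-leaf wheat (cv Norman) 24 h after inoculation with 1.5×10^6 conidia/ml. Disease control scored after 6-8 days at 22° C and 70% humidity as lesions per leaf versus untreated or diluent-sprayed controls.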

Phytophthora infestans = assay type: in vivo; conditions: tomato, direct protectant foliar spray
[2] = test system: Erysiphe graminis f.sp. hordei; test: Activity against barley powdery mildew, direct therapeutic (EGT); assay type: in vivo; conditions: direct therapeutic foliar spray, 600 ppm, up to 7 days
In short: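 A curative spray at 600 ppm was applied to single-leaf Golden Promise barley inoculated with powdery mildew conidia the previous day. After up to 7 days at 18 °C and 40% humidity, disease control was rated from percent leaf area sporulating relative to untreated or diluent-sprayed controls.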

Pyricularia oryzae = assay type: in vivo; conditions: rice seedlings, direct therapeutic foliar spray, 600 ppm, 4-5 days
[3] = test system: Pseudocercosporella herpotrichoides; test: Activity against wheat eyespot in-vitro (PHI); assay type: cell-based; conditions: 10 ppm, 10 days, 20° C., mycelial growth
In short: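 Mycelial growth was scored after 10 days at 20 °C against untreated or diluent controls. The broth was half-strength potato dextrose, holding 10 ppm test compound (from acetone) and 5×10^4 fragments/ml of the eyespot fungus.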

Botrytis cinerea = test: Direct protectant activity against broad bean grey mould (BCB); assay type: in vivo; conditions: direct protectant foliar spray, 600 ppm, 4 days
In short: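 Protectant foliar test: lesion coverage assessed 4 days after inoculation and rated relative to untreated or diluent-sprayed plants. Compound applied at 600 ppm to cv The Sutton leaves 24 h before 10^6 conidia/ml suspension; incubation at 22 °C in high humidity.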

Venturia inaequalis = test: Activity against apple scab in-vitro (VII); assay type: cell-based; conditions: 10 ppm, 10 days, 20° C., mycelial growth
In short: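 V. inaequalis propagules (5×10^4/ml, malt agar-grown) were exposed in half-strength PDB to 10 ppm final test compound delivered in acetone. Growth was scored after incubation for 10 days at 20° C, as a rating relative to untreated or diluent-sprayed controls.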

Plasmopara viticola = test: Antisporulant activity against vine downy mildew (PVA); assay type: in vivo; conditions: vine leaves, antisporulant foliar spray, 600 ppm, 750 l/ha
In short: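 Cabernet Sauvignon vines (~8 cm) inoculated on lower leaf surfaces with 5×10^4 zoosporangia/ml, held 24 h at 21° C high humidity then 24 h glasshouse. Infected leaves sprayed underside with 600 ppm compound in 1:1 water/acetone, 0.04% Tween 20, 750 l/ha; 96 h glasshouse, 24 h humidity. Sporulating leaf area rated versus control.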

Alternaria solani = test: Activity against tomato early blight (AS); assay type: in vivo; conditions: Table VI; tomato seedlings, contact prophylactic foliar spray, 4 days
In short: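 Plants were challenged with A. solani conidia (10^4 spores/ml) 24 h after a protective foliar spray of compound in 50:50 acetone/water plus 0.04% Tween 20. Held humid at 21° C for 4 days, then percent leaf area with lesions was scored as a rating relative to controls.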

Structure (SMILES) | disease control rating EGP [1] | disease control rating RSI (Rhizoctonia solani) | disease control rating LN (Leptosphaeria nodorum) | disease control rating PIP (Phytophthora infestans) | disease control rating EGT [2] | disease control rating PO (Pyricularia oryzae) | disease control rating PHI [3] | disease control rating BCB (Botrytis cinerea) | disease control rating VII (Venturia inaequalis) | disease control rating PVA (Plasmopara viticola) | disease control rating AS (Alternaria solani)
CC(C)(C)C1CCC2(CC1)CC(NC1CCCCC1)CO2 (centres unmarked) [Compound 16] | 2 (greater than 80% disease control) | 0 (less than 50% disease control) | 1 (about 50-80% disease control) | 0 (less than 50% disease control) | 2 (greater than 80% disease control) | 0 (less than 50% disease control) | 0 (less than 50% disease control) | 1 (about 50-80% disease control) | 2 (greater than 80% disease control) | 0 (less than 50% disease control) | 2 (greater than 80% disease control)
CC1CCCCN1C1COC2(CCC(C(C)(C)C)CC2)C1 (centres unmarked) [Compound 17] | 2 (greater than 80% disease control) | 0 (less than 50% disease control) | 0 (less than 50% disease control) | 0 (less than 50% disease control) | 2 (greater than 80% disease control) | 0 (less than 50% disease control) | 0 (less than 50% disease control) | 0 (less than 50% disease control) | 0 (less than 50% disease control) | 0 (less than 50% disease control) | 0 (less than 50% disease control)
CC1CCCN(C2COC3(CCC(C(C)(C)C)CC3)C2)C1 (centres unmarked) [Compound 18] | 2 (greater than 80% disease control) | 0 (less than 50% disease control) | 1 (about 50-80% disease control) | 0 (less than 50% disease control) | 2 (greater than 80% disease control) | 0 (less than 50% disease control) | 0 (less than 50% disease control) | 0 (less than 50% disease control) | 1 (about 50-80% disease control) | 0 (less than 50% disease control) | 0 (less than 50% disease control)
CC1CCN(C2COC3(CCC(C(C)(C)C)CC3)C2)CC1 (centres unmarked) [Compound 19] | 2 (greater than 80% disease control) | 0 (less than 50% disease control) | 1 (about 50-80% disease control) | 0 (less than 50% disease control) | 2 (greater than 80% disease control) | 0 (less than 50% disease control) | 0 (less than 50% disease control) | 0 (less than 50% disease control) | 1 (about 50-80% disease control) | 0 (less than 50% disease control) | 0 (less than 50% disease control)
CN(C1CCCCC1)C1COC2(CCC(C(C)(C)C)CC2)C1 (centres unmarked) [Compound 20] | 2 (greater than 80% disease control) | 0 (less than 50% disease control) | 0 (less than 50% disease control) | 0 (less than 50% disease control) | 2 (greater than 80% disease control) | 0 (less than 50% disease control) | 0 (less than 50% disease control) | 0 (less than 50% disease control) | 1 (about 50-80% disease control) | 0 (less than 50% disease control) | 0 (less than 50% disease control)
CC(C)(C)C1CCC2(CC1)CC(N1CCCCCC1)CO2 (centres unmarked) [Compound 21] | 2 (greater than 80% disease control) | 0 (less than 50% disease control) | 0 (less than 50% disease control) | 0 (less than 50% disease control) | 2 (greater than 80% disease control) | 0 (less than 50% disease control) | 0 (less than 50% disease control) | 2 (greater than 80% disease control) | 1 (about 50-80% disease control) | 0 (less than 50% disease control) | 0 (less than 50% disease control)
CC(C)(C)C1CCC2(CC1)CC(Nc1ccccc1)CO2 (centres unmarked) [Compound 22] | 1 (about 50-80% disease control) | 0 (less than 50% disease control) | 0 (less than 50% disease control) | 0 (less than 50% disease control) | 1 (about 50-80% disease control) | 0 (less than 50% disease control) | 0 (less than 50% disease control) | 0 (less than 50% disease control) | 0 (less than 50% disease control) | 0 (less than 50% disease control) | 0 (less than 50% disease control)
CC(C)(C)C1CCC2(CC1)CC(Nc1ccc(Cl)cc1)CO2 (centres unmarked) [Compound 23] | 0 (less than 50% disease control) | 0 (less than 50% disease control) | 0 (less than 50% disease control) | 0 (less than 50% disease control) | 0 (less than 50% disease control) | 0 (less than 50% disease control) | 0 (less than 50% disease control) | 0 (less than 50% disease control) | 2 (greater than 80% disease control) | 0 (less than 50% disease control) | 0 (less than 50% disease control)
CC(C)(C)c1ccc(NC2COC3(CCC(C(C)(C)C)CC3)C2)cc1 (centres unmarked) [Compound 24] | 0 (less than 50% disease control) | 0 (less than 50% disease control) | 0 (less than 50% disease control) | 0 (less than 50% disease control) | 0 (less than 50% disease control) | 0 (less than 50% disease control) | 0 (less than 50% disease control) | 0 (less than 50% disease control) | 0 (less than 50% disease control) | 0 (less than 50% disease control) | 0 (less than 50% disease control)
CCCCc1ccc(NC2COC3(CCC(C(C)(C)C)CC3)C2)cc1 (centres unmarked) [Compound 25] | 0 (less than 50% disease control) | 0 (less than 50% disease control) | 0 (less than 50% disease control) | 0 (less than 50% disease control) | 0 (less than 50% disease control) | 0 (less than 50% disease control) | 0 (less than 50% disease control) | 0 (less than 50% disease control) | 0 (less than 50% disease control) | 0 (less than 50% disease control) | 0 (less than 50% disease control)
